Data published in patent publication US11873298B2, “Compounds and uses thereof” (JANSSEN PHARMACEUTICA NV, priority 2017, dated 2024).

Assays:
SCD5 = target: T1, SCD5 (Homo sapiens, UniProt Q86SK9); test: Growth inhibition of humanized yeast strain expressing SCD5 as sole desaturase; type: cell-based
T1 construct: host or cells: S. cerevisiae ole1Δ strain (W303 pdr1Δ pdr3Δ background), plasmid pRS316 with TDH3 promoter and CYC1 terminator
T1 sequence (Q86SK9 1-330): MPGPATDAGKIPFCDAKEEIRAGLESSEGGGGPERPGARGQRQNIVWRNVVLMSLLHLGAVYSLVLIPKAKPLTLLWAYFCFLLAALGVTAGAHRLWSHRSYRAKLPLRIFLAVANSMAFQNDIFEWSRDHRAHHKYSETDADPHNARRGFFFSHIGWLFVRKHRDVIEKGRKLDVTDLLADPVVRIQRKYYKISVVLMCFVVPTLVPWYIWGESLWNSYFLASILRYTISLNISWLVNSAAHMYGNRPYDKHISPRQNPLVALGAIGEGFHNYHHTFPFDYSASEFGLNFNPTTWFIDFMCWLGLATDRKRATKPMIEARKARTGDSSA
Outline: (§1)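 Plasmid-complemented ole1Δ yeast, drug-pump deleted (pdr1Δ pdr3Δ), depend solely on the introduced Ole1, SCD1 or SCD5 desaturase. Compounds are added from DMSO to cells in uracil-free galactose medium, 2× density 0.02, and OD600 is read after 24 h or 40 h respectively.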

SCD1 = target: T2, SCD1 (Homo sapiens, UniProt O00767); test: Growth inhibition of humanized yeast strain expressing SCD1 as sole desaturase; type: cell-based
T2 construct: host or cells: S. cerevisiae ole1Δ strain (W303 pdr1Δ pdr3Δ background), plasmid pRS316 with TDH3 promoter and CYC1 terminator
T2 sequence (O00767 1-359): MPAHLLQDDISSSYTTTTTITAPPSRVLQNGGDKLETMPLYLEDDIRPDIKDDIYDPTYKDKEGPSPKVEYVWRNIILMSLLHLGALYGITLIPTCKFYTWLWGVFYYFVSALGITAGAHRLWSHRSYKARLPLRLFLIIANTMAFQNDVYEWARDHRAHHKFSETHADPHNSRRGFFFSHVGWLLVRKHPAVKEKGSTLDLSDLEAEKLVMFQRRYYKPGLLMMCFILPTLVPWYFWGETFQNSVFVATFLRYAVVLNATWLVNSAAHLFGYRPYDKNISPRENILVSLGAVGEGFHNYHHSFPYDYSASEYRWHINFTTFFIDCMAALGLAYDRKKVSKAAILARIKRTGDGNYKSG
Outline: as §1

[1] = growth inhibition of humanized yeast strain expressing human SCD5
[2] = growth inhibition of humanized yeast strain expressing human SCD1

| SMILES | IC50 (SCD5; humanized yeast strain, 40 h) [µM] | IC50 (SCD1; humanized yeast strain, 40 h) [µM] | further results |
| --- | --- | --- | --- |
| CC1(OC(=O)N2CCC(c3noc(-c4ccnc([C@@H]5CCOC5)c4)n3)CC2)CC1 [Compound 1137] | 0.0522 | > 45 | – |
| Cn1ccc(-c2cc(-c3nc(C4CCN(C(=O)OC5(C)CC5)CC4)no3)ccn2)n1 [Compound 1185] | > 45 | > 45 | – |
| CC(C)(C)OC(=O)N1CCCN(c2noc(-c3ccc4cnn(C5COC5)c4c3)n2)CC1 [Compound 854] | 0.01 | 14.6 | – |
| CC(C)n1cc2c(n1)CN(c1noc(C3CCN(C(=O)OC(C)(C)C)CC3)n1)CC2 [Compound 868] | 0.967 | > 45 | – |
| CC(C)(C)OC(=O)N1CCC(c2nc(-c3ccnc(Cl)c3)no2)CC1 [Compound 747] | 26.8 | > 45 | – |
| C=C(C)c1nccn2cc(-c3nc(C4CCN(C(=O)OC(C)(C)C)CC4)no3)cc12 [Compound 888] | 0.01 | > 45 | – |
| CC(C)n1ncc2ccc(-c3noc(N4CCC(O)(CCCl)CC4)n3)cc21 [Compound 763] | 18 | 29.5 | – |
| CC(C)C(=O)N1CCC(c2noc(-c3cncc(N4CCC(F)(F)C4)c3)n2)CC1 [Compound 1174] | 10.4 | > 45 | – |
| CC(C)C(=O)N1CCC(c2noc(-c3ccnc(C4CCOC4)c3)n2)CC1 (centres unmarked) [Compound 1090] | 0.54 | > 45 | – |
| CC(C)(C)OC(=O)N1CCC(c2noc(-c3ccc(N4CCOCC4)cc3)n2)CC1 [Compound 1150] | > 45 | > 45 | – |
| COC(=O)N1CCN(c2noc(-c3ccc4cnn(C5CN(C)C5)c4c3)n2)CC1 [Compound 960] | 0.01 | 20.4 | – |
| CC(C)(C)OC(=O)N1CCN(c2nc(-c3ccc4cnn(C5CNC5)c4c3)no2)CC1 [Compound 910] | 0.01 | > 45 | – |
| CC(C)(C)OC(=O)N1CC=C(c2ccc(-c3ccc4cnn(C5COC5)c4c3)cn2)CC1 [Compound 955] | > 45 | > 45 | – |
| CC(C)Nc1cc(-c2nc(N3CCN(C(=O)OC(C)(C)C)CC3)no2)ccn1 [Compound 809] | 0.124 | > 45 | – |
| CC(C)n1ncc2ccc(-c3noc(C4CCN(S(=O)(=O)C5CCCCC5)CC4)n3)cc21 [Compound 516] | – | – | IC50 (SCD5; humanized yeast strain expressing SCD5): > 45 µM; IC50 (SCD1; humanized yeast strain expressing SCD1): > 45 µM |
| COC(=O)N1CCN(c2noc(-c3ccnc(OC4COC4)c3)n2)CC1 [Compound 1002] | 5.05 | > 45 | – |
| COC(=O)N1CCN(c2noc(-c3ccc4cnn(C(C)C)c4c3)n2)CC1 [Compound 630] | – | – | IC50 (SCD5; [1]): 0.014 µM; IC50 (SCD1; [2]): 10.2 µM |
| CCC(=O)N1CCC(c2nc(-c3ccc4onc(C(C)C)c4c3)no2)CC1 [Compound 940] | 31.2 | > 45 | – |
| CCC(=O)N1CCC(c2noc(-c3ccc4cnn(C5COC5)c4c3)n2)CC1 [Compound 891] | 0.01 | > 45 | – |
| CCOC(=O)CC(C)n1ncc2ccc(-c3noc(C4CCN(C(=O)OC(C)(C)C)CC4)n3)cc21 (centres unmarked) [Compound 651] | – | – | IC50 (SCD5; [1]): 18.4 µM; IC50 (SCD1; [2]): > 45 µM |
| COc1cc(-c2nc(C3CCN(C(=O)OC(C)(C)C)CC3)no2)cc2c1cnn2C1COC1 [Compound 1076] | 1.03 | > 45 | – |
| CC(C)(C)OC(=O)N1CCC(c2nc(-c3ccc4cncn4c3)no2)CC1 [Compound 825] | 9.49 | > 45 | – |
| CC(C)n1ncc2ccc(-c3noc(N4C[C@H]5CN(C(=O)C(C)(C)C)C[C@H]5C4)n3)cc21 [Compound 764] | 16.7 | > 45 | – |
| CC(C)n1ncc2cnc(-c3cc(C4CCN(C(=O)OC(C)(C)C)CC4)on3)cc21 [Compound 885] | 0.01 | 25.4 | – |
| CC(C)n1ncc2ccc(-c3noc(N4CCC5(CCO5)CC4)n3)cc21 [Compound 744] | – | – | IC50 (SCD5; [1]): > 45 µM; IC50 (SCD1; [2]): > 45 µM |
| CC(C)n1nc(CCS(C)(=O)=O)c2ccc(-c3noc(C4CCN(C(=O)OC(C)(C)C)CC4)n3)cc21 [Compound 766] | > 45 | > 45 | – |
| CC(C)(C)OC(=O)N1CCC(c2ccc(-c3ccc4cnn(C5COC5)c4c3)cn2)CC1 [Compound 966] | 0.15 | > 45 | – |
| CC(=O)N1CC(CC(=O)N2CCC(c3nc(-c4ccc5c(C)nn(C)c5c4)no3)CC2)C1 [Compound 638] | – | – | IC50 (SCD5; [1]): > 45 µM; IC50 (SCD1; [2]): > 45 µM |
